How the values were obtained:
Type in all cases: in vivo, human
UCD patients = assay: HPN-100-009 (Example 2): rate of hyperammonemic crises (HACs); conditions: Age 2 Months to <2 Years
From the text: HPN-100-009 is an open-label study consisting of a transition period to HPN-100, followed by a safety extension period for at least 6 months and up to 24 months of treatment with HPN-100, depending on age at enrollment. It is designed to capture information important for evaluating safety, pharmacokinetics and efficacy in young children. Subjects eligible for this study included patients ranging from newborn to <2 years of age with either a diagnosed or clinically suspected UCD. Ten infant and toddler (28 days to 23 months) subjects were enrolled in this study.
Subjects aged 2 months to <2 years received RAVICTI® Oral Liquid administered just prior to breastfeeding or intake of formula or food. The recommended dosing regimen is 3-6 times per day depending on feeding schedule and at the discretion of the Investigator. The starting dose of RAVICTI® was based on UCD status (newly diagnosed, or already stable on sodium phenylbutyrate [NaPBA] and/or sodium benzoate [NaBz]) and whether a hyperammonemic crisis is present. Subsequently, the dose was adjusted based on clinical and/or ammonia results, according to an algorithm provided in the protocol.
Rate of Hyperammonemic Crises (HACs) During the First 6 Months on RAVICTI®.
End point description. A HAC was defined having signs and symptoms consistent with hyperammonemia (such as but not limited to frequent vomiting, nausea, headache, lethargy, irritability, combativeness, somnolence) associated with high blood ammonia and requiring medical intervention. Rate of HACs prior to enrollment was calculated as sum of (number of HAC)/sum of (subject age in days at the time of enrollment or 365 days, whichever was less) across all subjects in the corresponding group. Rate of HACs per 6 months during the safety extension was calculated as sum of (number of HAC)/sum of (days during first 6 months starting on Day 8 or number days on RAVICTI®, whichever was less) across all subjects in the corresponding group. Safety population: all enrolled subjects who received any amount of study medication. […]

[1] = Example 3: urinary PAA concentrations (first full day and up to end of trial)
Experimental: Urinary PAA Concentrations on the First Full Day of RAVICTI Dosing
PK Evaluable Population: all subjects from the safety population with individual concentration-time profiles that allow computation of meaningful PK parameter values. Measurements were taken at hour 0, between 0.5 and 1.5 hours, between 1.5 and 2.5 hours, between 4 and 6 hours, between 7.5 and 8.5 hours, and between 12 and 24 hours after the first dose of the day on day 1 for stable subjects and on day 2 for subjects in HAC.
Urinary PAA Concentrations Up to End of Trial
PK Evaluable Population: all subjects from the safety population with individual concentration-time profiles that allow computation of meaningful PK parameter values. Measurements were taken at day 7, month 1, month 2, month 3, month 4, month 5, month 6, month 9, month 12, month 15, month 18, month 24, and at the end of the trial.

[2] = Pharmacokinetics of HPN-100 and NaPBA, study HPN-100-005; conditions: HPN-100-005 (N = 11)
From the text: The pharmacokinetics of the short term studies can be summarized as follows. Mean exposure levels of HPN-100 metabolites PBA, PAA, and PAGN after doses of HPN-100 and NaPBA with meals (TID) in pediatric (29 days to 17 years of age) UCD patients in HPN-100-005 and HPN-100-012 studies are summarized below. The mean exposure to PBA, the parent metabolite, and mean exposure to PAGN, the terminal metabolite, show no systematic variation across age groups, while PAA exposure tended to decrease with increasing age, a finding consistent with those from population PK modeling which indicate that the rate of clearance/metabolism of PAA varies directly with body size. While systemic metabolite exposure, assessed as peak plasma concentration (Cmax) or AUC, is generally similar for HPN-100 and NaPBA, the minimum concentration (Cmin-ss) was higher—and/or percent-fluctuation less—for plasma PAGN, a finding consistent with slower gastrointestinal absorption of PBA when administered orally as HPN-100.

With O=C(CCCc1ccccc1)OCC(COC(=O)CCCc1ccccc1)OC(=O)CCCc1ccccc1 [RAVICTI, benzenebutanoic acid, 1′,1″-(1,2,3-propanetriyl) ester] the “Rate of HACs During Safety Extension” value (UCD patients; Day 8 up to Month 6, n = 9) was 0.006, the “Rate of HACs During Transition (Days 1-7)” value (UCD patients; n = 10) was 0 and the “Rate of HACs Prior to Enrollment” value (UCD patients; up to 365 days prior to enrollment, n = 10) was 0.11. For the same compound, the “Urinary PAA concentration” value ([1]; Age 0 to <2 months, Day 7) was 23.7 (±31.2); μg/mL, the “Urinary PAA concentration” value ([1]; Age 0 to <2 months, End of trial) was 11.6 (±9.0); μg/mL and the “Urinary PAA concentration” value ([1]; Age 0 to <2 months, Month 1) was 14.6 (±17.2); μg/mL. For the same compound, the “Urinary PAA concentration” value ([1]; Age 0 to <2 months, Month 2) was 12.3 (±13.3); μg/mL, the “Urinary PAA concentration” value ([1]; Age 0 to <2 months, Month 3) was 14.4 (±10.7); μg/mL and the “Urinary PAA concentration” value ([1]; Age 0 to <2 months, Month 4) was 6.4 (±7.1); μg/mL. The “Urinary PAA concentration” value ([1]; Age 0 to <2 months, Month 5) was 13.2 (±14.0); μg/mL, the “Urinary PAA concentration” value ([1]; Age 0 to <2 months, Month 6) was 5.5 (±00000); μg/mL and the “Urinary PAA concentration” value ([1]; Age 0 to <2 months, Month 9) was 11.8 (±8.5); μg/mL. The “Urinary PAA concentration” value ([1]; Age 0 to <2 months, Month 12) was 6.0 (±3.8); μg/mL, the “Urinary PAA concentration” value ([1]; Age 0 to <2 months, Month 15) was 4.9 (±0.3); μg/mL and the “Urinary PAA concentration” value ([1]; Age 0 to <2 months, first full day, 0.5 to 1.5 hours) was 46.2 (±58.6); μg/mL. For the same compound, the “Urinary PAA concentration” value ([1]; Age 0 to <2 months, first full day, 1.5 to 2.5 hours) was 62.5 (±42.8), μg/mL, the “Urinary PAA concentration” value ([1]; Age 0 to <2 months, first full day, 4 to 6 hours) was 34.6 (±56.2); μg/mL and the “Urinary PAA concentration” value ([1]; Age 0 to <2 months, first full day, 7.5 to 8.5 hours) was 22.8 (±25.3); μg/mL. For the same compound, the “Urinary PAA concentration” value ([1]; Age 0 to <2 months, first full day, 12 to 24 hours) was 35.2 (±51.0); μg/mL, the “Urinary PAA concentration” value ([1]; Age 0 to <2 months, first full day, Hour 0) was 11.1 (±10.4); μg/mL and the “Urinary PAA concentration” value ([1]; Age 2 months to <2 years, Day 7) was 5.82 (±2.21); μg/mL. The “Urinary PAA concentration” value ([1]; Age 2 months to <2 years, End of trial) was 7.0 (±5.16); μg/mL, the “Urinary PAA concentration” value ([1]; Age 2 months to <2 years, Month 1) was 4.44 (±4.61); μg/mL and the “Urinary PAA concentration” value ([1]; Age 2 months to <2 years, Month 2) was 3.69 (±1.82); μg/mL. For the same compound, the “Urinary PAA concentration” value ([1]; Age 2 months to <2 years, Month 3) was 4.65 (±0.49); μg/mL, the “Urinary PAA concentration” value ([1]; Age 2 months to <2 years, Month 4) was 7.14 (±00000); μg/mL and the “Urinary PAA concentration” value ([1]; Age 2 months to <2 years, Month 5) was 3.27 (±1.96); μg/mL. The “Urinary PAA concentration” value ([1]; Age 2 months to <2 years, Month 6) was 1.59 (±00000); μg/mL, the “Urinary PAA concentration” value ([1]; Age 2 months to <2 years, Month 9) was 4.10 (±1.65); μg/mL and the “Urinary PAA concentration” value ([1]; Age 2 months to <2 years, Month 15) was 2.04 (±00000); μg/mL. For the same compound, the “Urinary PAA concentration” value ([1]; Age 2 months to <2 years, Month 18) was 1.64 (±00000); μg/mL, the “Urinary PAA concentration” value ([1]; Age 2 months to <2 years, first full day, 0.5 to 1.5 hours) was 6.50 (±3.39); μg/mL and the “Urinary PAA concentration” value ([1]; Age 2 months to <2 years, first full day, 1.5 to 2.5 hours) was 7.29 (±4.10); μg/mL. For the same compound, the “Urinary PAA concentration” value ([1]; Age 2 months to <2 years, first full day, 4 to 6 hours) was 2.60 (±2.18); μg/mL, the “Urinary PAA concentration” value ([1]; Age 2 months to <2 years, first full day, 7.5 to 8.5 hours) was 4.48 (±4.38); μg/mL and the “Urinary PAA concentration” value ([1]; Age 2 months to <2 years, first full day, 12 to 24 hours) was 4.31 (±2.33); μg/mL. The “Urinary PAA concentration” value ([1]; Age 2 months to <2 years, first full day, Hour 0) was 18.78 (±27.33); μg/mL, the “Plasma PAA % Fluctuation” value ([2]; mean (CV %)) was 3483 (51.5) % and the “Plasma PAA AUC0-24” value ([2]; mean (CV %)) was 964 (63.6) μg · h/mL. The “Plasma PAA CLss/F” value ([2]; mean (CV %)) was 15082 (101.4) mL/min, the “Plasma PAA Cmax-ss” value ([2]; mean (CV %)) was 90.5 (69.1) μg/mL and the “Plasma PAA Cmin-ss” value ([2]; mean (CV %)) was 2.99 (122.1) μg/mL. For the same compound, the “Plasma PAGN % Fluctuation” value ([2]; mean (CV %)) was 1001 (84.5) %, the “Plasma PAGN AUC0-24” value ([2]; mean (CV %)) was 1378 (40.2) μg · h/mL and the “Plasma PAGN CLss/F” value ([2]; mean (CV %)) was 14237 (36.8) mL/min. For the same compound, the “Plasma PAGN Cmax-ss” value ([2]; mean (CV %)) was 105 (33.5) μg/mL, the “Plasma PAGN Cmin-ss” value ([2]; mean (CV %)) was 13.1 (64.9) μg/mL and the “Plasma PBA % Fluctuation” value ([2]; mean (CV %)) was 5690 (56.8) %. The “Plasma PBA AUC0-24” value ([2]; mean (CV %)) was 631 (44.9) μg · h/mL, the “Plasma PBA CLss/F” value ([2]; mean (CV %)) was 20545 (47.2) mL/min and the “Plasma PBA Cmax-ss” value ([2]; mean (CV %)) was 95.6 (42.0) μg/mL. For the same compound, the “Plasma PBA Cmin-ss” value ([2]; mean (CV %)) was 1.50 (99.8) μg/mL, the “U-PAGN Ae” value ([2]; mean (CV %)) was 12501037 (56.9) μg and the “U-PAGN Ae0-12” value ([2]; mean (CV %)) was 5611719 (74.7) μg. The “U-PAGN Ae12-24” value ([2]; mean (CV %)) was 6889318 (50.1) μg, the “U-PAGN Fe0-12” value ([2]; mean (CV %)) was 28.9 (42.1) % and the “U-PAGN Fe12-24” value ([2]; mean (CV %)) was 37.4 (32.3) %. For the same compound, the “U-PAGN Fe % dose” value ([2]; mean (CV %)) was 66.4 (23.9) %, the “Plasma PAA Tmax-ss” value ([2]; median) was 11.92 h and the “Plasma PAGN Tmax-ss” value ([2]; median) was 12.00 h. For the same compound, the “Plasma PBA Tmax-ss” value ([2]; median) was 12.00 h.

From patent US10668040B2, “Treatment of urea cycle disorders in neonates and infants” (Horizon Therapeutics, LLC, priority 2017, dated 2020)
